Consider six molecules from ChEMBL document CHEMBL2057188, “Hybridizing ability and nuclease resistance profile of backbone modified cationic phosphorothioate oligonucleotides” (Bioorg Med Chem, 2012).

What all share (type): nucleic-acid assay
Test [1] deals with Nucleic Acid. The test is described as follows: DNA hybridizing activity at single stranded DNA assessed as thermal stability of duplexes formed between compound and complimentary ssDNA by measuring melting temperature at 4 uM in presence of 10 mM pH 7.2 sodium phosphate buffer containing 100 mM NaCl by UV based melting experiment.
The test system of test [2] is Nucleic Acid. Kind of test: DNA hybridizing activity at single stranded DNA assessed as thermal stability of duplexes formed between compound and complimentary ssDNA by measuring change in melting temperature at 4 uM in presence of 10 mM pH 7.2 sodium phosphate buffer containing 100 mM NaCl by UV based melting experiment relative to untreated control.
Test [3] concerns Nucleic Acid. The test is described as follows: DNA hybridizing activity at single stranded RNA assessed as thermal stability of duplexes formed between compound and complimentary ssRNA by measuring melting temperature at 4 uM in presence of 10 mM pH 7.2 sodium phosphate buffer containing 100 mM NaCl by UV based melting experiment.
Test [4] relates to Nucleic Acid. The test is described as follows: DNA hybridizing activity at single stranded RNA assessed as thermal stability of duplexes formed between compound and complimentary ssRNA by measuring change in melting temperature at 4 uM in presence of 10 mM pH 7.2 sodium phosphate buffer containing 100 mM NaCl by UV based melting experiment relative to untreated control.
Test [5] relates to Nucleic Acid. The test is described as follows: DNA hybridizing activity at 22 bp double stranded DNA assessed as thermal stability of duplexes formed between compound and complimentary dsDNA by measuring melting temperature at 1.5 uM in presence of 7 mM pH 5.5 sodium phosphate buffer containing 140 mM K, 10 mM MgCl2 by UV based melting experiment.
The test system of test [6] is Nucleic Acid. Kind of test: DNA hybridizing activity at 22 bp double stranded DNA assessed as thermal stability of duplexes formed between compound and complimentary dsDNA by measuring change in melting temperature at 1.5 uM in presence of 7 mM pH 5.5 sodium phosphate buffer containing 140 mM K, 10 mM MgCl2 by UV based melting experiment.

As usually defined, the Tm is the temperature at which the thermal transition is half complete. One may read the ΔTm as the change in melting temperature against a reference sample.

On to `Cc1cn([C@H]2C[C@H](OP(=O)(O)OC[C@H]3O[C@@H](n4cc(C)c(=O)[nH]c4=O)C[C@@H]3OP(=O)(O)OC[C@H]3O[C@@H](n4cc(C)c(=O)[nH]c4=O)C[C@@H]3O[P@](=O)(OC[C@H]3O[C@@H](n4cc(C)c(=O)[nH]c4=O)C[C@@H]3OP(=O)(O)OC[C@H]3O[C@@H](n4cc(C)c(=O)[nH]c4=O)C[C@@H]3OP(=O)(O)OC[C@H]3O[C@@H](n4cc(C)c(=O)[nH]c4=O)C[C@@H]3OP(=O)(O)OC[C@H]3O[C@@H](n4ccc(N)nc4=O)C[C@@H]3OP(=O)(O)OC[C@H]3O[C@@H](n4ccc(N)nc4=O)C[C@@H]3OP(=O)(O)OC[C@H]3O[C@@H](n4ccc(N)nc4=O)C[C@@H]3OP(=O)(O)O)SCCCN3CCNCC3)[C@@H](COP(=O)(O)O[C@H]3C[C@H](n4ccc(N)nc4=O)O[C@@H]3COP(=O)(O)O[C@H]3C[C@H](n4ccc(N)nc4=O)O[C@@H]3COP(=O)(O)O[C@H]3C[C@H](n4ccc(N)nc4=O)O[C@@H]3CO)O2)c(=O)[nH]c1=O`, for which the Tm in the test with Nucleic Acid [1] stood at 41 °C; in the test with Nucleic Acid [3] it was 43 °C; with Nucleic Acid [5] it was 23 °C. Besides, the ΔTm with Nucleic Acid [2] is -1 °C; with Nucleic Acid [4], -3 °C; in the test with Nucleic Acid [6] it was -3 °C.
As to `Cc1cn([C@H]2C[C@H](OP(=O)(O)OC[C@H]3O[C@@H](n4cc(C)c(=O)[nH]c4=O)C[C@@H]3OP(=O)(O)OC[C@H]3O[C@@H](n4cc(C)c(=O)[nH]c4=O)C[C@@H]3O[P@](=O)(OC[C@H]3O[C@@H](n4cc(C)c(=O)[nH]c4=O)C[C@@H]3OP(=O)(O)OC[C@H]3O[C@@H](n4cc(C)c(=O)[nH]c4=O)C[C@@H]3OP(=O)(O)OC[C@H]3O[C@@H](n4cc(C)c(=O)[nH]c4=O)C[C@@H]3OP(=O)(O)OC[C@H]3O[C@@H](n4ccc(N)nc4=O)C[C@@H]3OP(=O)(O)OC[C@H]3O[C@@H](n4ccc(N)nc4=O)C[C@@H]3OP(=O)(O)OC[C@H]3O[C@@H](n4ccc(N)nc4=O)C[C@@H]3OP(=O)(O)O)SCCCCN)[C@@H](COP(=O)(O)O[C@H]3C[C@H](n4ccc(N)nc4=O)O[C@@H]3COP(=O)(O)O[C@H]3C[C@H](n4ccc(N)nc4=O)O[C@@H]3COP(=O)(O)O[C@H]3C[C@H](n4ccc(N)nc4=O)O[C@@H]3CO)O2)c(=O)[nH]c1=O`, the Tm in the test on Nucleic Acid [1] is 40 °C; with Nucleic Acid [3], 43 °C; with Nucleic Acid [5], 24 °C. In addition, the ΔTm in the test on Nucleic Acid [2] was -2 °C; with Nucleic Acid [4], -3 °C; with Nucleic Acid [6] it was -2 °C.
On to `Cc1cn([C@H]2C[C@H](OP(=O)(O)OC[C@H]3O[C@@H](n4cc(C)c(=O)[nH]c4=O)C[C@@H]3OP(=O)(O)OC[C@H]3O[C@@H](n4cc(C)c(=O)[nH]c4=O)C[C@@H]3O[P@@](=O)(OC[C@H]3O[C@@H](n4cc(C)c(=O)[nH]c4=O)C[C@@H]3OP(=O)(O)OC[C@H]3O[C@@H](n4cc(C)c(=O)[nH]c4=O)C[C@@H]3OP(=O)(O)OC[C@H]3O[C@@H](n4cc(C)c(=O)[nH]c4=O)C[C@@H]3OP(=O)(O)OC[C@H]3O[C@@H](n4ccc(N)nc4=O)C[C@@H]3OP(=O)(O)OC[C@H]3O[C@@H](n4ccc(N)nc4=O)C[C@@H]3OP(=O)(O)OC[C@H]3O[C@@H](n4ccc(N)nc4=O)C[C@@H]3OP(=O)(O)O)SCCN3CCNCC3)[C@@H](COP(=O)(O)O[C@H]3C[C@H](n4ccc(N)nc4=O)O[C@@H]3COP(=O)(O)O[C@H]3C[C@H](n4ccc(N)nc4=O)O[C@@H]3COP(=O)(O)O[C@H]3C[C@H](n4ccc(N)nc4=O)O[C@@H]3CO)O2)c(=O)[nH]c1=O`, for which the Tm in the test on Nucleic Acid [1] was 45 °C; with Nucleic Acid [3], 46 °C; with Nucleic Acid [5] it was 28 °C. For the same molecule, the ΔTm in the test with Nucleic Acid [2] turned out to be 3 °C; in the test with Nucleic Acid [4], 0 °C; in the test with Nucleic Acid [6], 3 °C.
`Cc1cn([C@H]2C[C@H](OP(=O)(O)OC[C@H]3O[C@@H](n4cc(C)c(=O)[nH]c4=O)C[C@@H]3OP(=O)(O)OC[C@H]3O[C@@H](n4cc(C)c(=O)[nH]c4=O)C[C@@H]3O[P@](=O)(OC[C@H]3O[C@@H](n4cc(C)c(=O)[nH]c4=O)C[C@@H]3OP(=O)(O)OC[C@H]3O[C@@H](n4cc(C)c(=O)[nH]c4=O)C[C@@H]3OP(=O)(O)OC[C@H]3O[C@@H](n4cc(C)c(=O)[nH]c4=O)C[C@@H]3OP(=O)(O)OC[C@H]3O[C@@H](n4ccc(N)nc4=O)C[C@@H]3OP(=O)(O)OC[C@H]3O[C@@H](n4ccc(N)nc4=O)C[C@@H]3OP(=O)(O)OC[C@H]3O[C@@H](n4ccc(N)nc4=O)C[C@@H]3OP(=O)(O)O)SCCNCCCN)[C@@H](COP(=O)(O)O[C@H]3C[C@H](n4ccc(N)nc4=O)O[C@@H]3COP(=O)(O)O[C@H]3C[C@H](n4ccc(N)nc4=O)O[C@@H]3COP(=O)(O)O[C@H]3C[C@H](n4ccc(N)nc4=O)O[C@@H]3CO)O2)c(=O)[nH]c1=O`: the figures for the Tm in the test with Nucleic Acid [1], in the test with Nucleic Acid [3] and in the test with Nucleic Acid [5] were 40 °C, 44 °C and 25 °C, respectively. Further, the results for the ΔTm in the test with Nucleic Acid [2], in the test on Nucleic Acid [4] and in the test with Nucleic Acid [6] were -2 °C, -2 °C and -1 °C, respectively.
As for `Cc1cn([C@H]2C[C@H](OP(=O)(O)OC[C@H]3O[C@@H](n4cc(C)c(=O)[nH]c4=O)C[C@@H]3OP(=O)(O)OC[C@H]3O[C@@H](n4cc(C)c(=O)[nH]c4=O)C[C@@H]3O[P@@](=O)(OC[C@H]3O[C@@H](n4cc(C)c(=O)[nH]c4=O)C[C@@H]3OP(=O)(O)OC[C@H]3O[C@@H](n4cc(C)c(=O)[nH]c4=O)C[C@@H]3OP(=O)(O)OC[C@H]3O[C@@H](n4cc(C)c(=O)[nH]c4=O)C[C@@H]3OP(=O)(O)OC[C@H]3O[C@@H](n4ccc(N)nc4=O)C[C@@H]3OP(=O)(O)OC[C@H]3O[C@@H](n4ccc(N)nc4=O)C[C@@H]3OP(=O)(O)OC[C@H]3O[C@@H](n4ccc(N)nc4=O)C[C@@H]3OP(=O)(O)O)SCCCN)[C@@H](COP(=O)(O)O[C@H]3C[C@H](n4ccc(N)nc4=O)O[C@@H]3COP(=O)(O)O[C@H]3C[C@H](n4ccc(N)nc4=O)O[C@@H]3COP(=O)(O)O[C@H]3C[C@H](n4ccc(N)nc4=O)O[C@@H]3CO)O2)c(=O)[nH]c1=O`, the Tm in the test with Nucleic Acid [1] came to 43 °C; in the test on Nucleic Acid [3] it was 46 °C; in the test on Nucleic Acid [5] it was 29 °C. Besides, the ΔTm in the test on Nucleic Acid [2] stood at 1 °C; in the test on Nucleic Acid [4], 0 °C; in the test on Nucleic Acid [6], 4 °C.
As for `Cc1cn([C@H]2C[C@H](OP(=O)(O)OC[C@H]3O[C@@H](n4cc(C)c(=O)[nH]c4=O)C[C@@H]3OP(=O)(O)OC[C@H]3O[C@@H](n4cc(C)c(=O)[nH]c4=O)C[C@@H]3O[P@@](=O)(OC[C@H]3O[C@@H](n4cc(C)c(=O)[nH]c4=O)C[C@@H]3OP(=O)(O)OC[C@H]3O[C@@H](n4cc(C)c(=O)[nH]c4=O)C[C@@H]3OP(=O)(O)OC[C@H]3O[C@@H](n4cc(C)c(=O)[nH]c4=O)C[C@@H]3OP(=O)(O)OC[C@H]3O[C@@H](n4ccc(N)nc4=O)C[C@@H]3OP(=O)(O)OC[C@H]3O[C@@H](n4ccc(N)nc4=O)C[C@@H]3OP(=O)(O)OC[C@H]3O[C@@H](n4ccc(N)nc4=O)C[C@@H]3OP(=O)(O)O)SCCNCCN)[C@@H](COP(=O)(O)O[C@H]3C[C@H](n4ccc(N)nc4=O)O[C@@H]3COP(=O)(O)O[C@H]3C[C@H](n4ccc(N)nc4=O)O[C@@H]3COP(=O)(O)O[C@H]3C[C@H](n4ccc(N)nc4=O)O[C@@H]3CO)O2)c(=O)[nH]c1=O`, the Tm with Nucleic Acid [1] is 45 °C; in the test with Nucleic Acid [3], 45 °C; in the test on Nucleic Acid [5], 30 °C. The ΔTm is 3 °C in the test on Nucleic Acid [2], -1 °C with Nucleic Acid [4] and 5 °C in the test on Nucleic Acid [6].
